The values below come from article PMC9184463, “Structural basis of ligand binding modes of human EAAT2” (Nature Communications, 2022).

One experiment relates to hEAAT3. Details: method as in PMID: 7521911. The note with it: ref PMID: 7521911; cited from earlier work.
In a further experiment the test system is hEAAT1. The settings on record: ref PMID: 7521911; cited from earlier work.
The test system of a further experiment is hEAAT2. The settings on record: ref PMID: 7521911; cited from earlier work.
The next experiment addresses T1, wild-type hEAAT2 (Homo sapiens, UniProt P43004).
T1 construct: Strep Tag II (N); superfolder GFP (sfGFP) (N); expressed in transfected cells; host or cells: HEK293T
Nature of the experiment: whole-cell patch-clamp of hEAAT2-associated anion current, wild-type hEAAT2 in HEK293T cells. It counts as cell-based. Here is the method:
(§1) Human embryonic kidney 293T (HEK293T) cells were cultured in Dulbecco’s Modified Eagle Medium (DMEM, Gibco) media supplemented with 15% (v/v) fetal bovine serum (FBS, PAN-Biotech) at 37 °C with 5% CO2. HEK293T cells were grown in the culture dishes (d = 3.5 cm) (Thermo Fisher Scientific) for 24 h and then 1 μg hEAAT2 wild-type and mutant plasmids for per dishes were used to transiently transfect HEK293T using 0.7 μg Lipofectamine 2000 Reagent (Thermo Fisher Scientific). Cells were analyzed using electrophysiological experiments between 24 and 40 h after transfection at room temperature (21–25 °C).
(§2) Electrophysiological experiments were performed as described previously with a minor modification. External buffer contained 140 mM NaCl, 2 mM MgCl2, 2 mM CaCl2, and 10 mM HEPES (pH = 7.4 with NaOH and osmolarity of ∼310 mosmol L^−1) and while internal pipette solution comprised of 130 mM NaSCN, 2 mM MgCl2, 10 mM EGTA, 10 mM HEPES (pH = 7.4 with NaOH and osmolarity of ∼310 mosmol L^−1) and 10 mM glutamate. 50 mM WAY-213613 stock solutions were prepared in dimethyl sulfoxide (DMSO), followed by dilutions to working concentrations with the above-mentioned external buffer. […] Whole cell patch-clamp experiment recordings were made from isolated GFP-positive HEK293T cells (hEAAT2 wild type and mutants). In all, 3–6 MΩ was used to fire a polished pipette (Sutter Instrument). […] Cells were immersed in the above-mentioned external buffer supplemented with a specified concentration of glutamate or WAY-213613. Glutamate-induced anion current, Na^+-dependent anion leak current and glutamate transport current or WAY-213613 inhibited anion leak currents were recorded using an EPC-10 amplifier (HEKA Electronic) at a 20 kHz sample rate with low pass filter at 5 kHz. All experiments were executed at 0 mV. After the cell current was stabilized, glutamate or WAY-213613 was sustained at the indicated concentrations from external dosing for at least 6 s. Subsequently, the cell was washed away with external buffer to start a new round of applications or end the experiment. The plateau currents were used for the following calculations. For analysis, the data was acquired by PatchMaster program (HEKA Electronic) at 5 s after recording. Nonlinear dose–response relationships were fitted into a Michaelis–Menten-like equation shown as below to obtain the apparent Km and Ki values in the presence of glutamate or WAY-213613.1 I/Imax=Km/i/C+Km/i In this equation, I represent the current at different glutamate or inhibitor concentrations, and Imax represents the maximal current at the saturating concentration of glutamate or inhibitor. [C] represents the concentration of glutamate or inhibitor. Km/i represents the apparent constant.
On the technique in general: In patch-clamp work, channel activity is measured electrically.

The target of a further experiment is T2, hEAAT2 mutant D475A (Homo sapiens, UniProt P43004, D475A).
T2 construct: Strep Tag II (N); superfolder GFP (sfGFP) (N); expressed in transfected cells; host or cells: HEK293T
Nature of the experiment: whole-cell patch-clamp, hEAAT2 mutant D475A in HEK293T cells. Format: cell-based. Here is the method:
as §1, §2

For the next experiment, the target named is T3, hEAAT2 mutant R478A (Homo sapiens, UniProt P43004, R478A).
T3 construct: Strep Tag II (N); superfolder GFP (sfGFP) (N); expressed in transfected cells; host or cells: HEK293T
The experiment can be described thus: whole-cell patch-clamp, hEAAT2 mutant R478A in HEK293T cells. It counts as cell-based. Here is the method: as §1, §2

Another experiment addresses T4, hEAAT2 mutant S441G (Homo sapiens, UniProt P43004, S441G).
T4 construct: Strep Tag II (N); superfolder GFP (sfGFP) (N); expressed in transfected cells; host or cells: HEK293T
The experiment can be described thus: whole-cell patch-clamp, hEAAT2 mutant S441G in HEK293T cells. It counts as cell-based. The settings on record: 0 mV; for glutamate-induced current, normalized (MEAN): S441G, normalized to maximal current. Here is the method: as §1, §2

In another experiment the target is T5, hEAAT2 mutant I464V (Homo sapiens, UniProt P43004, I464V).
T5 construct: Strep Tag II (N); superfolder GFP (sfGFP) (N); expressed in transfected cells; host or cells: HEK293T
Nature of the experiment: whole-cell patch-clamp, hEAAT2 mutant I464V in HEK293T cells. Format: cell-based. The settings on record: for glutamate-induced current, normalized (MEAN): I464V, 0 mV. Here is the method:
as §1, §2

The target of the next experiment is T6, hEAAT2 mutant L467I (Homo sapiens, UniProt P43004, L467I).
T6 construct: Strep Tag II (N); superfolder GFP (sfGFP) (N); expressed in transfected cells; host or cells: HEK293T
The experiment can be described thus: whole-cell patch-clamp, hEAAT2 mutant L467I in HEK293T cells. Format: cell-based. The note with it: for glutamate-induced current, normalized (MEAN): L467I, 0 mV. Here is the method: as §1, §2

A further experiment addresses T7, hEAAT2 mutant V468I (Homo sapiens, UniProt P43004, V468I).
T7 construct: Strep Tag II (N); superfolder GFP (sfGFP) (N); expressed in transfected cells; host or cells: HEK293T
Nature of the experiment: whole-cell patch-clamp, hEAAT2 mutant V468I in HEK293T cells. The note with it: for glutamate-induced current, normalized (MEAN): V468I, 0 mV. Format: cell-based. Here is the method: as §1, §2

Where [1] appears, read: 3 μM glutamate, normalized to current at 1000 μM.
The mark [2] stands for this setting: 10 μM glutamate, normalized to current at 1000 μM.
Setting [3] is: 30 μM glutamate, normalized to current at 1000 μM.
Setting [4] is: 100 μM glutamate, normalized to current at 1000 μM.
Setting [5] is: 300 μM glutamate, normalized to current at 1000 μM.
[6] abbreviates: 1000 μM glutamate, normalization reference.

T7 sequence (P43004 whole entry V468I): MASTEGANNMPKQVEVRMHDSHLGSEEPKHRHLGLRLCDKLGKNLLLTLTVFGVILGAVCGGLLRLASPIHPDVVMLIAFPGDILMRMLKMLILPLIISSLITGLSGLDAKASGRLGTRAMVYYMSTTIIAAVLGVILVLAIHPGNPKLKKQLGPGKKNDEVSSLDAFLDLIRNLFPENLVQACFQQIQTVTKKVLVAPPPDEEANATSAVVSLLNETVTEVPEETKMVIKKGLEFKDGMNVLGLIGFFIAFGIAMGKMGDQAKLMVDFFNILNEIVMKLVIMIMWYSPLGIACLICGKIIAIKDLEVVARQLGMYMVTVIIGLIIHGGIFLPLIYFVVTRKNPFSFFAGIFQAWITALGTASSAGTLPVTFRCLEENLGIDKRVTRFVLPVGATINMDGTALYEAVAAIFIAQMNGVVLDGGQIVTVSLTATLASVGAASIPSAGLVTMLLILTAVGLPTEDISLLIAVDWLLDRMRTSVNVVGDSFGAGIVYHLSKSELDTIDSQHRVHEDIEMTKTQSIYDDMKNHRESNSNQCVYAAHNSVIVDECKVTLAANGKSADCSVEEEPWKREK
T4 sequence (P43004 whole entry S441G): as the sequence (P43004 whole entry V468I) above, with S441G, I468V counted along it
T3 sequence (P43004 whole entry R478A): as the sequence (P43004 whole entry V468I) above, with I468V, R478A counted along it
T6 sequence (P43004 whole entry L467I): as the sequence (P43004 whole entry V468I) above, with L467I, I468V counted along it
T5 sequence (P43004 whole entry I464V): as the sequence (P43004 whole entry V468I) above, with I464V, I468V counted along it
T1 sequence (P43004 whole entry): as the sequence (P43004 whole entry V468I) above, with I468V counted along it
T2 sequence (P43004 whole entry D475A): as the sequence (P43004 whole entry V468I) above, with I468V, D475A counted along it

The Km is the concentration of substrate that gives half-maximal velocity. Take `N[C@@H](CC(=O)O)C(=O)O` [aspartate]: the results for the Km in the experiment with hEAAT3, in the experiment on hEAAT1 and in the experiment with hEAAT2 were 47 µM, 60 µM and 54 µM, respectively.
Regarding `N[C@@H](CCC(=O)O)C(=O)O` [glutamate], the “glutamate-induced current, normalized (MEAN)” value is given as 0.1101 on wild-type hEAAT2 (3 μM glutamate, WT, 0 mV, normalized to current at 1000 μM glutamate); 0.2265 at wild-type hEAAT2 (10 μM glutamate, WT, 0 mV, normalized to current at 1000 μM glutamate); 0.5388 at wild-type hEAAT2 (30 μM glutamate, WT, 0 mV, normalized to current at 1000 μM glutamate); 0.751 at wild-type hEAAT2 (100 μM glutamate, WT, 0 mV, normalized to current at 1000 μM glutamate); 0.9307 at wild-type hEAAT2 (300 μM glutamate, WT, 0 mV, normalized to current at 1000 μM glutamate); 1 on wild-type hEAAT2 (1000 μM glutamate, WT, 0 mV, normalization reference). Besides, the “glutamate-induced current, normalized (MEAN)” value worked out at 0.1494 on hEAAT2 mutant S441G (0.1 μM glutamate); 0.4931 at hEAAT2 mutant S441G (0.3 μM glutamate); 0.73 on hEAAT2 mutant S441G (1 μM glutamate); 0.9123 at hEAAT2 mutant S441G (3 μM glutamate); 1 on hEAAT2 mutant S441G (10 μM glutamate); 1.038 at hEAAT2 mutant S441G (30 μM glutamate). Further, the “glutamate-induced current, normalized (MEAN)” value at hEAAT2 mutant I464V (setting [1]) stood at 0.1004; on hEAAT2 mutant I464V (setting [2]) it was 0.2675; at hEAAT2 mutant I464V (setting [3]) it was 0.5257; at hEAAT2 mutant I464V (setting [4]), 0.7538; at hEAAT2 mutant I464V (setting [5]), 0.9218; on hEAAT2 mutant I464V (setting [6]) it was 1. Besides, the “glutamate-induced current, normalized (MEAN)” value on hEAAT2 mutant L467I (setting [1]) came out at 0.09492; on hEAAT2 mutant L467I (setting [2]), 0.2532; at hEAAT2 mutant L467I (setting [3]), 0.5328; at hEAAT2 mutant L467I (setting [4]), 0.7948; on hEAAT2 mutant L467I (setting [5]), 0.9242; at hEAAT2 mutant L467I (setting [6]), 1. Besides, the “glutamate-induced current, normalized (MEAN)” value was 0.1059 at hEAAT2 mutant V468I (setting [1]); 0.2526 at hEAAT2 mutant V468I (setting [2]); 0.5136 on hEAAT2 mutant V468I (setting [3]); 0.8108 on hEAAT2 mutant V468I (setting [4]); 0.9282 at hEAAT2 mutant V468I (setting [5]); 1 on hEAAT2 mutant V468I (setting [6]). The “glutamate-related current density (MEAN)” value is given as -27.6784 pA/pF at wild-type hEAAT2 (1mM Glutamate, WT, 0 mV, Na+ dependent leak current subtracted); 1.113 pA/pF at hEAAT2 mutant D475A (1mM Glutamate, D475A, 0 mV, Na+ dependent leak current subtracted); 0.4954 pA/pF at hEAAT2 mutant R478A (1mM Glutamate, R478A, 0 mV, Na+ dependent leak current subtracted). Further, the “effect of substrate on anion leak currents” value on wild-type hEAAT2 (wild-type hEAAT2) is given as “increased the amplitudes of anion leak currents”. The Km on wild-type hEAAT2 (wild-type hEAAT2, HEK293T, 0 mV, Michaelis-Menten-like fit, read-out: apparent Km (activation of anion current)) is 30 ± 2.5 µM; on hEAAT2 mutant S441G (S441G mutant, read-out: apparent Km), 0.4 ± 0.03 µM; in the experiment on hEAAT3 it was 62 µM; with hEAAT1, 48 µM; in the experiment on hEAAT2 it was 97 µM. In addition, the “activation of anion currents” value on hEAAT2 mutant D475A (D475A mutant, glutamate up to 1 mM) is reported as “failed to activate anion currents”; on hEAAT2 mutant R478A (R478A mutant, glutamate up to 1 mM), “failed to activate anion currents”. Also, the “activation of anion current” value at hEAAT2 mutant I464V (I464V mutant, glutamate in external solution) was “significantly activate anion current with similar efficacy as that of wild-type hEAAT2”; at hEAAT2 mutant L467I (L467I mutant, glutamate in external solution), “significantly activate anion current with similar efficacy as that of wild-type hEAAT2”; at hEAAT2 mutant V468I (V468I mutant, glutamate in external solution) it was “significantly activate anion current with similar efficacy as that of wild-type hEAAT2”.
